Patent US20240083861A1, “HSD17B13 INHIBITORS AND USES THEREOF” (FL2022-001, Inc., priority 2020, published 2024)

Biological target: T1, Recombinant human HSD17B13 enzyme (Homo sapiens, UniProt Q7Z5P4)
T1 sequence (Q7Z5P4 20-300): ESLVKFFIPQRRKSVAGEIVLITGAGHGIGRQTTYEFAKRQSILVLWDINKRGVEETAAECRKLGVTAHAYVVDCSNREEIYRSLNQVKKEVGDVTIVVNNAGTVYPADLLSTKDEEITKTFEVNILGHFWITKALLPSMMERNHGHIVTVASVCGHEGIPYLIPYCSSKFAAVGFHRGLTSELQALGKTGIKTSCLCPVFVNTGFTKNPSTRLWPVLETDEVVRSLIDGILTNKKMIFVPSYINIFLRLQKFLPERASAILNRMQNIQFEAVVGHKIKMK
Assay: HSD17b13 NAD(P)H-Glo biochemical assay
Settings: 50 uM estradiol, 1 mM NAD+, NAD(P)H-Glo luminescence; read-out: HSD17β13 IC50
Outline: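 Recombinant human HSD17B13 in 20 mM Tris pH7.4 with 0.002% Tween-20 and 0.02% BSA was preincubated with inhibitor for 20 minutes at RT. The reaction ran 3 hours at 37° C with 50 uM estradiol and 1 mM NAD+ (final). NADH formed was detected by NAD(P)H-Glo luminescence after 1 hour at RT.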

In the case of `CN1CCN(c2cc3c(cn2)c(-c2cc(C(F)(F)F)c(F)c(O)c2F)nn3C)C2(CCC2)C1` [Compound 9.96, 2,6-Difluoro-3-(1-methyl-6-(8-methyl-5,8-diazaspiro[3.5]nonan-5-yl)-1H-pyrazolo[4,3-c]pyridin-3-yl)-5-(trifluoromethyl)phenol], the IC50 is reported as under 100 nM.

In the case of `Cn1nc(-c2cc(C(F)(F)F)c(F)c(O)c2F)c2cnc(N3CCOC(CO)C3)cc21` (centres unmarked) [Compound 9.97, 2,6-Difluoro-3-(6-(2-(hydroxymethyl)morpholino)-1-methyl-1H-pyrazolo[4,3-c]pyridin-3-yl)-5-(trifluoromethyl)phenol], the IC50 is reported as 100 to 1000 nM.

For `COCC1(Nc2cc3c(cn2)c(-c2cc(C(F)(F)F)c(F)c(O)c2F)nn3C)CCC1` [Compound 9.98, 2,6-Difluoro-3-(6-((1-(methoxymethyl)cyclobutyl)amino)-1-methyl-1H-pyrazolo[4,3-c]pyridin-3-yl)-5-(trifluoromethyl)phenol], the IC50 was under 100 nM.

For `Cn1nc(-c2cc(C(F)(F)F)c(F)c(O)c2F)c2cnc(N3CCCC34CCOCC4)cc21` [Compound 9.99, 2,6-Difluoro-3-(1-methyl-6-(8-oxa-1-azaspiro[4.5]decan-1-yl)-1H-pyrazolo[4,3-c]pyridin-3-yl)-5-(trifluoromethyl)phenol], the IC50 was under 100 nM.

`Cn1nc(-c2cc(C(F)(F)F)c(F)c(O)c2F)c2cnc(N3[C@@H]4CNC[C@H]3COC4)cc21` [Compound 9.100, 3-(6-(cis-3-Oxa-7,9-diazabicyclo[3.3.1]nonan-9-yl)-1-methyl-1H-pyrazolo[4,3-c]pyridin-3-yl)-2,6-difluoro-5-(trifluoromethyl)phenol] showed an IC50 of 100 to 1000 nM.

`Cn1nc(-c2cc(C(F)(F)F)c(F)c(O)c2F)c2cnc(N3CCOCC3=O)cc21` [Compound 9.101, 4-(3-(2,4-Difluoro-3-hydroxy-5-(trifluoromethyl)phenyl)-1-methyl-1H-pyrazolo[4,3-c]pyridin-6-yl)morpholin-3-one] gave an IC50 of 100 to 1000 nM.

With `CN1CCN(c2cc3c(cn2)c(-c2cc(C(F)(F)F)c(F)c(O)c2F)nn3C)C(=O)C1` [Compound 9.102, 1-(3-(2,4-Difluoro-3-hydroxy-5-(trifluoromethyl)phenyl)-1-methyl-1H-pyrazolo[4,3-c]pyridin-6-yl)-4-methylpiperazin-2-one] the IC50 was 100 to 1000 nM.

`CN(c1nc2c(cc1F)c(-c1cc(C(F)(F)F)c(F)c(O)c1F)nn2C)C1CCOCC1` [Compound 9.103, 2,6-Difluoro-3-(5-fluoro-1-methyl-6-(methyl(tetrahydro-2H-pyran-4-yl)amino)-1H-pyrazolo[3,4-b]pyridin-3-yl)-5-(trifluoromethyl)phenol] showed an IC50 of under 100 nM.

Work on `Cn1nc(-c2cc(C(F)(F)F)c(F)c(O)c2F)c2cc(F)c(N3CCN(S(C)(=O)=O)CC34CC4)nc21` [Compound 9.104, 2,6-Difluoro-3-(5-fluoro-1-methyl-6-(7-(methylsulfonyl)-4,7-diazaspiro[2.5]octan-4-yl)-1H-pyrazolo[3,4-b]pyridin-3-yl)-5-(trifluoromethyl)phenol] yielded an IC50 of under 100 nM.

Molecule `Cn1nc(-c2cc(C(F)(F)F)c(F)c(O)c2F)c2cc(F)c(N3CCCOCC34CC4)nc21` [Compound 9.105, 2,6-Difluoro-3-(5-fluoro-1-methyl-6-(8-oxa-4-azaspiro[2.6]nonan-4-yl)-1H-pyrazolo[3,4-b]pyridin-3-yl)-5-(trifluoromethyl)phenol] has an IC50 of under 100 nM.

Work on `COC1CCN(c2nc3c(cc2F)c(-c2cc(C(F)(F)F)c(F)c(O)c2F)nn3C)CC1` [Compound 9.106, 2,6-Difluoro-3-(5-fluoro-6-(4-methoxypiperidin-1-yl)-1-methyl-1H-pyrazolo[3,4-b]pyridin-3-yl)-5-(trifluoromethyl)phenol] yielded an IC50 of under 100 nM.

`Cn1nc(-c2cc(C(F)(F)F)c(F)c(O)c2F)c2cc(F)c(N3CCOCC34CCC4)nc21` [Compound 9.107, 2,6-Difluoro-3-(5-fluoro-1-methyl-6-(8-oxa-5-azaspiro[3.5]nonan-5-yl)-1H-pyrazolo[3,4-b]pyridin-3-yl)-5-(trifluoromethyl)phenol] was tested, and the IC50 was under 100 nM.

In the case of `Cn1nc(-c2cc(C(F)(F)F)c(F)c(O)c2F)c2cc(F)c(N3CCOC4(CCC4)C3)nc21` [Compound 9.108, 2,6-Difluoro-3-(5-fluoro-1-methyl-6-(5-oxa-8-azaspiro[3.5]nonan-8-yl)-1H-pyrazolo[3,4-b]pyridin-3-yl)-5-(trifluoromethyl)phenol], the IC50 is reported as under 100 nM.

In the case of `Cn1nc(-c2ccc(F)c(O)c2F)c2cnc(N3CCOC4(CCC4)C3)cc21` [Compound 9.109, 2,6-Difluoro-3-(1-methyl-6-(5-oxa-8-azaspiro[3.5]nonan-8-yl)-1H-pyrazolo[4,3-c]pyridin-3-yl)phenol], the IC50 is reported as 100 to 1000 nM.

In the case of `Cn1nc(-c2cc(C(F)(F)F)c(F)c(O)c2F)c2cnc(N3CCOCC34CCC4)nc21` [Compound 9.110, 2,6-Difluoro-3-(1-methyl-6-(8-oxa-5-azaspiro[3.5]nonan-5-yl)-1H-pyrazolo[3,4-d]pyrimidin-3-yl)-5-(trifluoromethyl)phenol], the IC50 is reported as under 100 nM.

`Cn1nc(-c2cc(C(F)(F)F)c(F)c(O)c2F)c2cnc(N3CCNCC34CC4)cc21` [Compound 9.111, 2,6-Difluoro-3-(1-methyl-6-(4,7-diazaspiro[2.5]octan-4-yl)-1H-pyrazolo[4,3-c]pyridin-3-yl)-5-(trifluoromethyl)phenol] gave an IC50 of under 100 nM.

`CN1CCN(c2cc3c(cn2)c(-c2cc(C(F)(F)F)c(F)c(O)c2F)nn3C)C2(CC2)C1=O` [Compound 9.112, 4-(3-(2,4-Difluoro-3-hydroxy-5-(trifluoromethyl)phenyl)-1-methyl-1H-pyrazolo[4,3-c]pyridin-6-yl)-7-methyl-4,7-diazaspiro [2.5]octan-8-one] showed an IC50 of under 100 nM.

Work on `CCN1CCN(c2cc3c(cn2)c(-c2cc(C(F)(F)F)c(F)c(O)c2F)nn3C)C(=O)C1` [Compound 9.113, 1-(3-(2,4-Difluoro-3-hydroxy-5-(trifluoromethyl)phenyl)-1-methyl-1H-pyrazolo[4,3-c]pyridin-6-yl)-4-ethylpiperazin-2-one] yielded an IC50 of 100 to 1000 nM.

`Cn1nc(-c2cc(C(F)(F)F)c(F)c(O)c2F)c2cnc(N3CC(=O)NCC34CC4)cc21` [Compound 9.114, 4-(3-(2,4-Difluoro-3-hydroxy-5-(trifluoromethyl)phenyl)-1-methyl-1H-pyrazolo[4,3-c]pyridin-6-yl)-4,7-diazaspiro[2.5]octan-6-one] showed an IC50 of under 100 nM.

For `Cn1nc(-c2cc(C(F)(F)F)c(F)c(O)c2F)c2cnc(N3CC4(CC4)NCC3=O)cc21` [Compound 9.115, 7-(3-(2,4-Difluoro-3-hydroxy-5-(trifluoromethyl)phenyl)-1-methyl-1H-pyrazolo[4,3-c]pyridin-6-yl)-4,7-diazaspiro[2.5]octan-6-one], the IC50 was 100 to 1000 nM.

Molecule `CN(c1cc2c(cc1F)c(-c1cc(C(F)(F)F)c(F)c(O)c1F)nn2C)C1CCOCC1` [Compound 9.116, 2,6-Difluoro-3-(5-fluoro-1-methyl-6-(methyl(tetrahydro-2H-pyran-4-yl)amino)-1H-indazol-3-yl)-5-(trifluoromethyl)phenol] has an IC50 of under 100 nM.

`Cn1nc(-c2cc(C(F)(F)F)c(F)c(O)c2F)c2cc(F)c(N3CCN(S(C)(=O)=O)CC34CC4)cc21` [Compound 9.117, 2,6-Difluoro-3-(5-fluoro-1-methyl-6-(7-(methylsulfonyl)-4,7-diazaspiro[2.5]octan-4-yl)-1H-indazol-3-yl)-5-(trifluoromethyl)phenol] showed an IC50 of under 100 nM.

In the case of `Cn1nc(-c2cc(C(F)(F)F)c(F)c(O)c2F)c2c(F)cc(N3CCOCC34CC4)cc21` [Compound 9.118, 2,6-Difluoro-3-(4-fluoro-1-methyl-6-(7-oxa-4-azaspiro[2.5]octan-4-yl)-1H-indazol-3-yl)-5-(trifluoromethyl)phenol], the IC50 is reported as under 100 nM.

`Cn1nc(-c2cc(C(F)(F)F)c(F)c(O)c2F)c2ncc(N3CCOCC34CC4)cc21` [Compound 9.119, 2,6-Difluoro-3-(1-methyl-6-(7-oxa-4-azaspiro[2.5]octan-4-yl)-1H-pyrazolo[4,3-b]pyridin-3-yl)-5-(trifluoromethyl)phenol] was tested, and the IC50 was under 100 nM.

Molecule `CN(c1cc2c(nn1)c(-c1cc(C(F)(F)F)c(F)c(O)c1F)nn2C)C1CCOCC1` [Compound 9.120, 2,6-Difluoro-3-(1-methyl-6-(methyl(tetrahydro-2H-pyran-4-yl)amino)-1H-pyrazolo[4,3-c]pyridazin-3-yl)-5-(trifluoromethyl)phenol] has an IC50 of 100 to 1000 nM.

For `Cn1nc(-c2cc(C(F)(F)F)c(F)c(O)c2F)c2cc(F)c(N3CCOCC34CC4)cc21` [Compound 9.121, 2,6-Difluoro-3-(5-fluoro-1-methyl-6-(7-oxa-4-azaspiro[2.5]octan-4-yl)-1H-indazol-3-yl)-5-(trifluoromethyl)phenol], the IC50 was under 100 nM.

`Cn1nc(-c2cc(C(F)(F)F)c(F)c(O)c2F)c2cnc(N3CCN(S(C)(=O)=O)CC34CC4)nc21` [Compound 9.122, 2,6-Difluoro-3-(1-methyl-6-(7-(methylsulfonyl)-4,7-diazaspiro[2.5]octan-4-yl)-1H-pyrazolo[3,4-d]pyrimidin-3-yl)-5-(trifluoromethyl)phenol] showed an IC50 of under 100 nM.

In the case of `Cn1nc(-c2cc(C(F)(F)F)c(F)c(O)c2F)c2cnc(N(Cc3ccccc3)C3CCOCC3)cc21` [Compound 9.123, 3-(6-(Benzyl(tetrahydro-2H-pyran-4-yl)amino)-1-methyl-1H-pyrazolo[4,3-c]pyridin-3-yl)-2,6-difluoro-5-(trifluoromethyl)phenol], the IC50 is reported as under 100 nM.

Work on `Cn1nc(-c2cc(C(F)(F)F)c(F)c(O)c2F)c2cnc(N3CCS(=O)(=O)CC34CCC4)cc21` [Compound 9.124, 5-(3-(2,4-Difluoro-3-hydroxy-5-(trifluoromethyl)phenyl)-1-methyl-1H-pyrazolo[4,3-c]pyridin-6-yl)-8-thia-5-azaspiro[3.5]nonane 8,8-dioxide] yielded an IC50 of under 100 nM.
